Reference: US5141865A, “Monoclonal antibodies which bind thromboxane A2 receptor antagonists and diagnostic methods based thereon” (priority 1989, dated 1992)

Test system: monoclonal antibody MCTX1
Experiment: Competitive radioimmunoassay (RIA) with MCTX1 and radiolabel-1; standard curve and cross-reactivity
Format: binding, mouse
Settings: for percent cross-reactivity with MCTX1: ED50 of cross-reactant relative to ED50 of Compound I x 100, standards and cross-reactants in PBS
Procedure: Sera from immunized mice and media collected from wells containing HAT selected hybridomas were tested for the presence of antibodies recognizing Compound I by RIA. Undiluted media (50 μl) was incubated overnight at 4° C. with PBS (50 μl), normal human sera (50 μl) and [^125 I]-iodohistamine - Compound I (radiolabel-1) in PBS (200 μl, 50,000 CPM). After incubation, 1.0 ml of PEG 8000 (Fisher Scientific, Fairlawn, N.J.) (25% wt/vol) was added as separant; samples were centrigued at room temperature at 2000×g for 10 to 15 minutes and the supernatant decanted. Radioactivity associated with the precipitate was then determined using an APEX automatic gamma counter (ICN Micromedic Systems). Satisfactory zero binding and sensitivity were obtained after an overnight incubation at 4° C.
In order to assay samples for thromboxane A2 receptor antagonist, the same procedure was used, except that 50 μl of sample was used in place of the 50 μl of PBS.
In this regard, for construction of the standard curve and determination of cross-reactivity, standards and cross-reactants were prepared in PBS. Three cross-reactants were examined: the dinor and tetranor, possible metabolites of Compound I, and a related compound, Compound II, which lacks most of the omega side chain (Table 2).
To further characterize the specific structural features (epitope) within Compound I that are recognized by MCTX1, various derivatives of Compound I were tested for their cross-reactivity. The percent cross-reactivity was determined by dividing the ED50 of Compound I into the ED50 of the cross-reactants and multiplying the result by 100. […] Two potential metabolites of Compound I, the dinor and tetranor derivatives, had cross-reactivities of 66% and 17.6%, respectively. Both of these compounds have shortened alpha-side chains and no modifications in their omega-side chain. The extent of cross-reactivityof both alpha-side chain metabolites became less as the alpha-side chain became more truncated. […]

| Structure (SMILES) | percent cross-reactivity with MCTX1 [%] | recognition by MCTX1 (cross-reactivity test) (cross-reactant prepared in PBS) |
| --- | --- | --- |
| CCCCCCC(=O)NCC(=O)NCC1C2CCC(O2)C1CC=CCC(=O)O (stereo not drawn) [dinor] | 66 |  |
| CCCCCCC(=O)NCC(=O)NC[C@H]1[C@@H](CCC(=O)O)[C@@H]2CC[C@H]1O2 [tetranor] | 17.6 |  |
| COC(=O)CCC=CCC1C2CCC(O2)C1CN (stereo not drawn) [Compound II] |  | not recognized by MCTX1 |
